Read-outs that look alike come from different tables or passages of the source.
Assays:
[1] = Liver microsome metabolism assay, rat; type: in vitro ADME; conditions: rat liver microsomes
Method: Liver microsomes (0.5 mg/mL) were purchased from Corning. Ketanserin was selected as a positive control. The tested compounds were first dissolved in DMSO to a concentration of 10 mM and then diluted to 0.5 mM with acetonitrile. Liver microsome buffer was used to dilute the compounds to a working concentration of 1.5 µM, 30 µL of which was mixed with 15 µL of 6 mM NADPH at 37 °C. At 0, 5, 15, 30, and 45 min after incubation, 135 µL of acetonitrile was added to quench the reaction. The mixture was shaken on a vortex mixer (IKA, MTS 2/4) for 10 min at 600 rpm/min and then centrifuged at 5594× g for 15 min (Thermo Multifuge×3R). The supernatant was diluted 1:1 into distilled water, and analyzed by LC-MS/MS.

hHDAC2 = target: T1, hHDAC2 (Homo sapiens, UniProt Q92769); assay: Human HDAC inhibition assay, hHDAC2; type: biochemical; conditions: performed only once; read-out: Inhibitory Activity IC50, hHDAC2
T1 construct: purchased BPS Bioscience 5002
T1 sequence (Q92769 whole entry): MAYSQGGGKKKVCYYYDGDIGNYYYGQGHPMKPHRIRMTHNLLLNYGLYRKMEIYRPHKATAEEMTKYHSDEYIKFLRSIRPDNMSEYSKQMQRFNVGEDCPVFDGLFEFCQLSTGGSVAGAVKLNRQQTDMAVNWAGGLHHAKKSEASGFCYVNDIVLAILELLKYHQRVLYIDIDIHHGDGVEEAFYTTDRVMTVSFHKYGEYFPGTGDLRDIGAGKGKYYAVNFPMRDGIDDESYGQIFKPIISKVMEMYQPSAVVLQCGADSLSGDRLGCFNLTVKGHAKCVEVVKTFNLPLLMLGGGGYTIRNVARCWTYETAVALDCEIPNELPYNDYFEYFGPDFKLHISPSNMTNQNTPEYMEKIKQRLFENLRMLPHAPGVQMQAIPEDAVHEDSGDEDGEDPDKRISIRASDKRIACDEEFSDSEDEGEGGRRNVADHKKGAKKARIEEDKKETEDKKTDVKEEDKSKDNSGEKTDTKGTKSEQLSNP
Method: (§1) SAHA and suramin were used as positive controls. The tested compounds were dissolved into 20 mM stock in 100% DMSO. […] Ten microliters of trypsin and Ac-peptide substrate/Tris buffer solution were added to start the reaction, followed by a 1-h incubation at room temperature for HDACs 1–3 and 6. Ten microliters of Ac-peptide substrate/Tris buffer solution was added to start the reaction, followed by a 4-h incubation at room temperature and a further 2-h incubation with trypsin solution for HDAC8 and Sirt 2. […] This experiment was performed only once.

P. falciparum 3D7 [2] = assay: Ring-stage survival assay (RSA), sensitive strain 3D7; type: cell-based, Plasmodium falciparum; conditions: 700 nM
[3] = test system: P. falciparum NF54 stage II gametocytes; assay: In vitro gametocyte inhibition assay, stage II; type: cell-based, Plasmodium falciparum; conditions: NF54 luciferase line, 48 h exposure
Method: To test the activities of JX21108 against different gametocyte stages, the P. falciparum producer NF54^p230p-luc was utilized, as described previously. […] Luciferase intensity based on luciferase expression was detected as described above. The EC50 was calculated by GraphPad Prism. DMSO (1%) was used as a negative control.

P. falciparum 3D7 [4] = assay: Stage-specific parasite inhibition assay; type: cell-based, Plasmodium falciparum; conditions: 40 nM
Method: To analyze the stage-specific parasite inhibition, highly synchronized parasites were cultured in 24-well plates with a starting parasitemia of 1% at a hematocrit of 2%. After 12 h of culture with the tested compounds at a concentration of 40 nM, parasites were washed three times to remove the compounds, and parasitemia was diluted 1:40 by new RBCs into CM for another 4 days of culture. DMSO was used as a blank control. Parasitemia was counted by flow cytometry. Flow cytometry was conducted as described previously. Briefly, the parasite-infected RBCs were fixed in 4% formaldehyde/0.015% glutaraldehyde for 30 min at room temperature and incubated with 500 μL of a SYBR green staining solution (Invitrogen) (1:5000) in 1× PBS (phosphate-buffered saline, pH 7.4, without calcium and magnesium). Cells were washed three times with 1× PBS prior to flow-cytometry analysis on a MoFloAstrios EQ instrument (BECKMAN COULTER). RBCs (5 × 10^5) were measured (excitation 488 nm; emission detection FL1 513 ± 26 nm), and a value of 5 on FL1 (SYBR Green intensity) was applied as a threshold to identify (gate) the infected RBCs (iRBCs). Acquired data were processed using the FlowJo software (v.10.0.5).

[5] = test system: parasite histone H3 acetylation; assay: Western blot of histone H3 acetylation in parasites; type: cell-based, Plasmodium falciparum; conditions: 4 h treatment of asynchronous 3D7; quisinostat/JX21108 5 and 20 nM, SAHA 500 nM
Method: Then the parasite samples were harvested and treated with 0.15% saponin to remove the RBC proteins and sonicated in 1% NP40 lysis buffer. After centrifugation at 12,000× g for 15 min, the supernatant was resuspended in a routine SDS loading buffer. Parasite proteins were separated by 10% SDS-PAGE and transferred onto PVDF membranes (Millipore). […] A2348) followed by a secondary antibody conjugated with HRP (Jackson Immuno Research Laboratories). The chemiluminescent HRP substrate Immobilon Western Kit (Millipore) was used for signal detection.

hSirt2 = target: T2, hSirt2 (Homo sapiens, UniProt Q8IXJ6); assay: Human HDAC inhibition assay, hSirt2; type: biochemical; conditions: performed only once; read-out: Inhibitory Activity IC50, hSirt2
T2 construct: purchased BPS Bioscience 50013
T2 sequence (Q8IXJ6 whole entry): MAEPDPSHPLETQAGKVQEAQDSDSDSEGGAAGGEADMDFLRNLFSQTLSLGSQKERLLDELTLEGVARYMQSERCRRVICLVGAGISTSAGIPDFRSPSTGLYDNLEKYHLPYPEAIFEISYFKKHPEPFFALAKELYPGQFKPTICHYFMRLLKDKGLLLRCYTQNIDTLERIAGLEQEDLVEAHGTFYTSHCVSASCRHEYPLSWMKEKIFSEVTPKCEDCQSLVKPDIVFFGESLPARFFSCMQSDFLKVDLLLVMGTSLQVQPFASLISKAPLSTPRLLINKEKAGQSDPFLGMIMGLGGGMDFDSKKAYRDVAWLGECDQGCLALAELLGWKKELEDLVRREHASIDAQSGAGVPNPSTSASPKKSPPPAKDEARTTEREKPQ
Method: as §1

[6] = test system: asynchronous 3D7 parasites; assay: Time- and dose-dependent parasite inhibition assay; type: cell-based, Plasmodium falciparum
Method: Asynchronous parasites (2% parasitemia, 4% hematocrit) were treated with the tested compounds at a concentration of 10, 30, 60, or 100 nM, respectively. At 3, 6, 12, and 24 h post treatment, parasitemia of each sample was detected by flow cytometry to investigate the time-dependent activity. Parasites from the same treatment were further washed to remove compounds, and parasitemia was diluted 1:40 by new RBCs into CM for an additional 4 days of culture. Parasitemia of each sample was detected by flow cytometry as described above to investigate the dose-dependent activity. DMSO was used as a blank control.

hHDAC6 = target: T3, hHDAC6 (Homo sapiens, UniProt Q9UBN7); assay: Human HDAC inhibition assay, hHDAC6; type: biochemical; conditions: performed only once; read-out: Inhibitory Activity IC50, hHDAC6
T3 construct: purchased BPS Bioscience 50046
T3 sequence (Q9UBN7 whole entry): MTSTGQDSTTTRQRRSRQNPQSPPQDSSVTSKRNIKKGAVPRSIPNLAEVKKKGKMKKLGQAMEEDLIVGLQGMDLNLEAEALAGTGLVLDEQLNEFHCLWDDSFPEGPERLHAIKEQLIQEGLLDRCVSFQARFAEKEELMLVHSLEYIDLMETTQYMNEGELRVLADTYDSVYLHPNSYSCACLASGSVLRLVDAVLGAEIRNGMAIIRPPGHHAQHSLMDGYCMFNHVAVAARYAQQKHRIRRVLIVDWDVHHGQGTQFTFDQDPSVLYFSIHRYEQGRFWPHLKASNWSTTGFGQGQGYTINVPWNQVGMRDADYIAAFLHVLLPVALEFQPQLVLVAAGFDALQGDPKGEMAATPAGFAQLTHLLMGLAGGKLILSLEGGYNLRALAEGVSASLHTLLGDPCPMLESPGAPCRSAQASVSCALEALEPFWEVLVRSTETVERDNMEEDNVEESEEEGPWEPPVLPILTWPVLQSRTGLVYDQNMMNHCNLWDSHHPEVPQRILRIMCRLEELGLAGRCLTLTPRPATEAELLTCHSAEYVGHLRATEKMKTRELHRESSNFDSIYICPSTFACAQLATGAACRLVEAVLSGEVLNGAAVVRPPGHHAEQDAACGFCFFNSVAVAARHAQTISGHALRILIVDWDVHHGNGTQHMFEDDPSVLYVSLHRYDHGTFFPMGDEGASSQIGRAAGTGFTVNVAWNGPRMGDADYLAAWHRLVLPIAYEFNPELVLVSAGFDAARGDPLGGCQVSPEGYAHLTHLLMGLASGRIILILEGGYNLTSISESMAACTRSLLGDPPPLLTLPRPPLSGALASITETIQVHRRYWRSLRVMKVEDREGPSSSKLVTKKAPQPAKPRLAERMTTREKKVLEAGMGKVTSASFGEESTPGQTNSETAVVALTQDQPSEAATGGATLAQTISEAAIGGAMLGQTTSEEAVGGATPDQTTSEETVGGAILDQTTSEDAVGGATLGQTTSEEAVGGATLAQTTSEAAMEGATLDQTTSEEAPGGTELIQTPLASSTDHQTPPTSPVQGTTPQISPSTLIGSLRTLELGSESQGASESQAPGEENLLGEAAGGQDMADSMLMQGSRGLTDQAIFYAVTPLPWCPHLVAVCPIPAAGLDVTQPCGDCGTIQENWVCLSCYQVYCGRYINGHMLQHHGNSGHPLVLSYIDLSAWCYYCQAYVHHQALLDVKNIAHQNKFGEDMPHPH
Method: as §1

[7] = test system: drug-sensitive and multidrug-resistant strains of P. falciparum; assay: 3-day SYBR Green I GIA, summary over several strains; type: cell-based; conditions: Plasmodium falciparum
Method: (§2) A 3-day SYBR Green I inhibition EC50 assay was performed as described previously. Briefly, highly synchronized ring-stage parasites by 5% sorbitol (1% parasitemia and 2% hematocrit) were incubated in a 96-well plate with compounds in a total volume of 200 μL. […] The parasites were cultured for 72 h before SYBR Green I staining as described above. The EC50 was calculated by GraphPad Prism. DHA was used as a positive control, and the final concentration of DMSO was 1%.

hHDAC3 = target: T4, hHDAC3 (Homo sapiens, UniProt O15379); assay: Human HDAC inhibition assay, hHDAC3; type: biochemical; conditions: performed only once; read-out: Inhibitory Activity IC50, hHDAC3
T4 construct: purchased BPS Bioscience 50003
T4 sequence (O15379 whole entry): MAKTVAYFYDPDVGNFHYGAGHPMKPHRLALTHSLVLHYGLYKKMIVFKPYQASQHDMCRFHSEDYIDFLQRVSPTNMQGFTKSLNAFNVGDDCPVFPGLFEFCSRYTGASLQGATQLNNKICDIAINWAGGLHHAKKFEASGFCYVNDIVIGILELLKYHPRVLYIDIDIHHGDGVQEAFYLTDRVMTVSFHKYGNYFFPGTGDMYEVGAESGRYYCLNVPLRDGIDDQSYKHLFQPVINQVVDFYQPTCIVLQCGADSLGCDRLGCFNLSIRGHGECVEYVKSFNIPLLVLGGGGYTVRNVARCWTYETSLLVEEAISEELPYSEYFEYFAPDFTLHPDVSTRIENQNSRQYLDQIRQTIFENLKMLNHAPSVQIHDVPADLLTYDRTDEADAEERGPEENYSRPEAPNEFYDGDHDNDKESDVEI
T4 sequence (Q9Y618 395-489 partner limits assumed): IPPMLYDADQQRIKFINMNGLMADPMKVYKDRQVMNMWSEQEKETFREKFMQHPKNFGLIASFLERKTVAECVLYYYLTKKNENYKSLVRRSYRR
Method: as §1

P. falciparum CP286 = assay: 3-day SYBR Green I GIA, strain CP286; type: cell-based; conditions: Plasmodium falciparum; CP286 resistant to pyrimethamine and chloroquine; read-out: Resistant isolates EC50, CP286
Method: as §2

Cl.Cn1cc(CN2CCC3(CCN(c4ncc(C(=O)NO)cn4)C3)C2)c2cc(C#N)ccc21 (stereo not drawn) [JX21108]
CLint scaled at 1 µM ([1]; read-out: CL in liver microsomes): 196 mL/min/kg
half-life at 1 µM ([1]; read-out: T1/2 in liver microsomes): 12.7 min
IC50 (hHDAC2): 4.6 nM
RSA effect on ring-stage parasites of 3D7 (P. falciparum 3D7 [2]): efficiently killed the ring-stage parasites
EC50 [3]: 38.8 ± 17.8 nM
EC50 ([3]; Plasmodium falciparum, NF54, 48 h): 38.8 ± 17.8 nM
stage dependence of parasite killing (parasitemia at 4 dpi) (P. falciparum 3D7 [4]; 12-h treatment): treatment at the schizont stage was more active in parasite killing than that at the ring and trophozoite stages
asexual development of parasites to the next cycle (P. falciparum 3D7 [4]; 12-h treatment at ring, trophozoite and schizont stages): strongly block the asexual development of parasites to the next cycle
pan-acetylation levels of parasite histone H3 [5]: greatly increased the pan-acetylation levels of parasite histone H3
IC50 (hSirt2): > 10 µM
parasite growth after 3 h of treatment ([6]; 100 nM, 3 h, washed, 4 days culture): completely blocked parasite growth
parasitemia measured 4 days after 6-h treatment ([6]; 6-h treatment, washed, 1:40 dilution, 4 days culture): substantial reduction in parasitemia
asexual growth of 3D7 after 12- and 24-h treatments ([6]; 10-100 nM, parasitemia immediately after treatment): significantly inhibited the asexual growth of 3D7 parasites
IC50 (hHDAC6): 66 nM
EC50 ([7]; three strains tested, read-out: EC50 values on strains GB4, C2A and CP286): 2 to 8 nM
EC50 ([7]; variety of geographically representative strains, read-out: EC50 against drug-sensitive and multidrug-resistant strains of P. falciparum): 2 to 7 nM
IC50 (hHDAC3): 19 nM
EC50 (P. falciparum CP286): 7 ± 0.6 nM

Source: paper PMC7733455, “A novel multistage antiplasmodial inhibitor targeting Plasmodium falciparum histone deacetylase 1” (Cell Discovery, 2020)
